From PubChem BioAssay (NCI)
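Cells were grown in 96-well plates and exposed to each compound for 48 hours at five concentrations; endpoints were interpolated linearly between bracketing concentrations, or set to the highest concentration if not reached. Abbreviation: GI50, concentration required for 50% inhibition of growth. TGI is the concentration that stops growth completely.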

Tests used:
Test in all cases: NCI tumour cell line growth inhibition, 48 h
OVCAR-3 ovarian = system: OVCAR-3 ovarian
UACC-62 melanoma = system: UACC-62 melanoma
TK-10 renal = system: TK-10 renal
KM12 colon = system: KM12 colon
CAKI-1 renal = system: CAKI-1 renal
SK-MEL-5 melanoma = system: SK-MEL-5 melanoma
UACC-257 melanoma = system: UACC-257 melanoma
T-47D breast = system: T-47D breast
SF-539 CNS = system: SF-539 CNS
DU-145 prostate = system: DU-145 prostate

COC(=O)[C@@H]1O[C@]12[C@@H](CO[Si](C)(C)C(C)(C)C)O[C@@H](n1cc(C)c(=O)[nH]c1=O)[C@@H]2O[Si](C)(C)C(C)(C)C
TGI (OVCAR-3 ovarian): 31.1 µM | TGI (UACC-62 melanoma): 34.8 µM | TGI (TK-10 renal): > 100 µM | TGI (KM12 colon): > 100 µM | TGI (CAKI-1 renal): 70 µM | TGI (SK-MEL-5 melanoma): 38.5 µM | TGI (UACC-257 melanoma): 75.2 µM | TGI (T-47D breast): 27.3 µM | TGI (SF-539 CNS): 75.3 µM | TGI (DU-145 prostate): 39 µM

c1cc2ccc1CNCCN1CCNCc3ccc(cc3)Oc3ccc(cc3)CNCCN(CCNCc3ccc(cc3)O2)CCNCc2ccc(cc2)Oc2ccc(cc2)CNCC1
GI50 (OVCAR-3 ovarian): 1.65 µM | TGI (OVCAR-3 ovarian): 3.05 µM | GI50 (UACC-62 melanoma): 1.66 µM | TGI (UACC-62 melanoma): 3.1 µM | GI50 (TK-10 renal): 1.62 µM | TGI (TK-10 renal): 3.45 µM | GI50 (KM12 colon): 1.77 µM | TGI (KM12 colon): 3.22 µM | GI50 (CAKI-1 renal): 3.07 µM | TGI (CAKI-1 renal): 12.9 µM | GI50 (SK-MEL-5 melanoma): 2.26 µM | TGI (SK-MEL-5 melanoma): 5.19 µM | GI50 (UACC-257 melanoma): 1.8 µM | TGI (UACC-257 melanoma): 3.4 µM | GI50 (T-47D breast): 1.63 µM | TGI (T-47D breast): 3.61 µM | GI50 (SF-539 CNS): 1.44 µM | TGI (SF-539 CNS): 2.76 µM | GI50 (DU-145 prostate): 1.46 µM | TGI (DU-145 prostate): 2.83 µM
